“Also recorded” adds a separate entry of the source.
Assays:
[1] = tested on: Escherichia coli strain K-12 MG1655; test: Time-kill experiments (antibiotic lethality with biochemical supplementation); settings: for ciprofloxacin (CIP) lethality / gentamicin (GENT) lethality / ampicillin (AMP) lethality: time-kill, with vs without the added substance; for ciprofloxacin (CIP) lethality: 16 ng/mL CIP; for gentamicin (GENT) lethality: 48 ng/mL GENT (minimal medium); for ampicillin (AMP) lethality: 4 μg/mL AMP; for antibiotic lethality: supplementation in wildtype cells, tested antibiotics AMP, CIP and GENT
[2] = tested on: E. coli cells; test: Oxygen consumption rate quantification (Seahorse XFe96 Extracellular Flux Analyzer); type: cell-based, Escherichia coli; settings: for cellular oxygen consumption rate (OCR) following antibiotic treatment: antibiotic alone, in contrast to control conditions; for cellular OCR under antibiotic treatment: 1 mM adenine or uracil supplementation, AMP, CIP or GENT treatment
[3] = tested on: E. coli cells; settings: E. coli cells treated with the antibiotic; cited from earlier work
[4] = tested on: E. coli; test: Unstressed growth in MOPS minimal medium; settings: exogenous supplementation, no antibiotic
[5] = tested on: E. coli cells; test: Intracellular metabolite quantification by LC-MS/MS after adenine or uracil supplementation; type: cell-based, Escherichia coli
Protocol: Intracellular metabolites were quantified on an AB SCIEX Qtrap® 5500 mass spectrometer (AB SCIEX; Framingham, Mass.), as previously described (McCloskey et al., 2018), and processed using in house scripts. […] Samples were collected 1 hr after supplementation, and aliquots with biomass equivalents to 10 mL of cell culture at OD600=0.1 were subjected to metabolite extraction using a 40:40:20 mixture of acetonitrile, methanol and LC-MS grade water. Uniformly labeled ^13C-standards were generated by growing E. coli in uniformly labeled Glucose M9 minimal media in aerated shake flasks, as previously described (McCloskey et al., 2014). Calibration mixes of standards were split across several mixes, aliquoted, and lyophilized to dryness. All samples and calibrators were equally spiked with the same internal standards. Samples were quantified using […] mass spectrometry. Calibration curves were run before and after all biological and analytical replicates. Consistency of quantification between calibration curves was checked by running a Quality Control sample composed of all biological replicates. Values reported are derived from the average of the biological triplicates, analyzed in duplicate (n=6).
Metabolite concentrations were estimated from LC-MS/MS peak heights using previously generated calibration curves. […] Metabolites in blanks with a concentration greater than 80% of that found in the biological samples were similarly excluded. Missing values were imputed by bootstrapping using the R package Amelia II (v. 1.7.4, 1,000 imputations) (Honaker et al., 2011). Remaining missing values were approximated as ½ the lower limit of quantification for the metabolite normalized to the biomass of the sample. Intracellular metabolite concentrations were calculated based on an estimated cell density of 7·10^7 CFU/mL at OD600=0.1 (FIGS. 5A-5C) and an estimated cell volume of 1.3 fL for non-stressed exponential phase E. coli cells (Milo and Phillips, 2016).

[6] = 1 mM supplementation, 1 hr, MOPS minimal medium

SMILES	ciprofloxacin (CIP) lethality [1]	gentamicin (GENT) lethality [1]	ampicillin (AMP) lethality [1]	cellular oxygen consumption rate (OCR) following antibiotic treatment [2]	antibiotic lethality [1]	also measured
Sc1ncnc2nc[nH]c12 [6-mercaptopurine]	decreased	increased	decreased			
CC1(C)S[C@@H]2[C@H](NC(=O)[C@H](N)c3ccccc3)C(=O)N2[C@H]1C(=O)O [AMP, ampicillin]				increased		intracellular purine nucleic acid bases (adenine, guanine) [3]: depleted; intracellular pyrimidine nucleic acid bases (cytosine, thymine, uracil) [3]: accumulate
O=C(O)c1cn(C2CC2)c2cc(N3CCNCC3)c(F)cc2c1=O [CIP, ciprofloxacin]				increased		
CNC(C)C1CCC(N)C(OC2C(N)CC(N)C(OC3OCC(C)(O)C(NC)C3O)C2O)O1 (stereo not drawn) [GENT, gentamicin]				increased		
Nc1ncnc2nc[nH]c12 [adenine]	decreases	decreases	decreases		decreased	cellular OCR under antibiotic treatment [2]: significantly repressed; unstressed growth [4]: does not significantly alter; NADH/NAD+ ratio [5, 6]: unchanged; NADPH/NADP+ ratio [5, 6]: modest decrease; adenylate energy charge [5, 6]: modest decrease; intracellular fumarate [5, 6]: decreased; intracellular succinate [5, 6]: increased; intracellular adenine nucleotides ([5]; exogenous adenine addition): accumulate
Nc1cc[nH]c(=O)n1 [cytosine]					potentiated; also recorded: potentiating effect	
CCn1cc(C(=O)O)c(=O)c2cc(F)c(N3CCNCC3)cc21 [norfloxacin]						intracellular purine nucleic acid bases (adenine, guanine) [3]: depleted; intracellular pyrimidine nucleic acid bases (cytosine, thymine, uracil) [3]: accumulate
COc1cc(Cc2cnc(N)nc2N)cc(OC)c1OC [trimethoprim]	decreases	increases	decreases			
O=c1cc[nH]c(=O)[nH]1 [uracil]	increases	increases	increases		potentiated; also recorded: potentiating effect	cellular OCR under antibiotic treatment [2]: enhanced; unstressed growth [4]: does not significantly alter
O=c1ccn([C@@H]2O[C@H](CO)[C@@H](O)[C@H]2O)c(=O)[nH]1 [uridine]					potentiating effect	

Reference: patent US20220296594A1, “POTENTIATORS OF ANTIMICROBIAL AND/OR ANTIVIRAL AGENTS” (MASSACHUSETTS INSTITUTE OF TECHNOLOGY, priority 2019, published 2022)
